According to PubChem BioAssay (NCI):
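A five-concentration, 48-hour dose response in 96-well plates underlies each endpoint, interpolated linearly between surrounding concentrations. The concentration for 50% growth inhibition is given as GI50. TGI denotes the concentration required for complete inhibition of growth.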

How the values were obtained:
Assay in all cases: growth of human tumour cells (NCI), 48 h
OVCAR-3 ovarian = test system: OVCAR-3 ovarian
PC-3 prostate = test system: PC-3 prostate
K-562 leukemia = test system: K-562 leukemia
CAKI-1 renal = test system: CAKI-1 renal
RPMI-8226 leukemia = test system: RPMI-8226 leukemia
NCI-H23 lung = test system: NCI-H23 lung
UO-31 renal = test system: UO-31 renal
SK-MEL-5 melanoma = test system: SK-MEL-5 melanoma
OVCAR-5 ovarian = test system: OVCAR-5 ovarian
OVCAR-8 ovarian = test system: OVCAR-8 ovarian
SR leukemia = test system: SR leukemia
ACHN renal = test system: ACHN renal
RXF 393 renal = test system: RXF 393 renal
SK-MEL-28 melanoma = test system: SK-MEL-28 melanoma
T-47D breast = test system: T-47D breast
HS 578T breast = test system: HS 578T breast
COLO 205 colon = test system: COLO 205 colon
NCI-H460 lung = test system: NCI-H460 lung
MDA-MB-435 = test system: MDA-MB-435
NCI-H522 lung = test system: NCI-H522 lung
MOLT-4 leukemia = test system: MOLT-4 leukemia
IGROV1 ovarian = test system: IGROV1 ovarian
MALME-3M melanoma = test system: MALME-3M melanoma
DU-145 prostate = test system: DU-145 prostate
HCT-15 colon = test system: HCT-15 colon
LOX IMVI melanoma = test system: LOX IMVI melanoma
MDA-MB-231 breast = test system: MDA-MB-231 breast
OVCAR-4 ovarian = test system: OVCAR-4 ovarian
786-0 renal = test system: 786-0 renal

Work on `Cc1cccc(/C=C/C(=O)Nc2ncc(Cc3cccc(C)c3)s2)c1` yielded a GI50 (OVCAR-3 ovarian) of 1050 nM, a TGI (OVCAR-3 ovarian) of 8550 nM and a GI50 (PC-3 prostate) of 875 nM. The TGI (PC-3 prostate) was over 100000 nM, the GI50 (K-562 leukemia) was 117 nM and the TGI (K-562 leukemia) was over 100000 nM. For the same molecule, the GI50 (CAKI-1 renal) was 518 nM, the TGI (CAKI-1 renal) was over 100000 nM and the GI50 (RPMI-8226 leukemia) was 1140 nM. For the same molecule, the TGI (RPMI-8226 leukemia) was over 100000 nM, the GI50 (NCI-H23 lung) was 6620 nM and the TGI (NCI-H23 lung) was over 100000 nM. It also gave a GI50 (UO-31 renal) of 618 nM, a TGI (UO-31 renal) of over 100000 nM and a GI50 (SK-MEL-5 melanoma) of 1230 nM. It also gave a TGI (SK-MEL-5 melanoma) of over 81100 nM, a GI50 (OVCAR-5 ovarian) of 1440 nM and a TGI (OVCAR-5 ovarian) of over 100000 nM. The GI50 (OVCAR-8 ovarian) was 1360 nM, the TGI (OVCAR-8 ovarian) was over 100000 nM and the GI50 (SR leukemia) was 179 nM. The TGI (SR leukemia) was over 100000 nM, the GI50 (ACHN renal) was 1060 nM and the TGI (ACHN renal) was over 100000 nM. It also gave a GI50 (RXF 393 renal) of 910 nM, a TGI (RXF 393 renal) of 5950 nM and a GI50 (SK-MEL-28 melanoma) of 1930 nM. It also gave a TGI (SK-MEL-28 melanoma) of over 100000 nM, a GI50 (T-47D breast) of 575 nM and a TGI (T-47D breast) of over 100000 nM. The GI50 (HS 578T breast) was 1040 nM, the TGI (HS 578T breast) was over 100000 nM and the GI50 (COLO 205 colon) was 766 nM. For the same molecule, the TGI (COLO 205 colon) was 3000 nM, the GI50 (NCI-H460 lung) was 545 nM and the TGI (NCI-H460 lung) was over 100000 nM. It also gave a GI50 (MDA-MB-435) of 303 nM, a TGI (MDA-MB-435) of 1140 nM and a GI50 (NCI-H522 lung) of 599 nM. The TGI (NCI-H522 lung) was 2080 nM, the GI50 (MOLT-4 leukemia) was 710 nM and the TGI (MOLT-4 leukemia) was over 100000 nM. It also gave a GI50 (IGROV1 ovarian) of 1670 nM, a TGI (IGROV1 ovarian) of over 100000 nM and a GI50 (MALME-3M melanoma) of 1300 nM. It also gave a TGI (MALME-3M melanoma) of over 100000 nM, a GI50 (DU-145 prostate) of 876 nM and a TGI (DU-145 prostate) of over 100000 nM. It also gave a GI50 (HCT-15 colon) of 585 nM, a TGI (HCT-15 colon) of over 100000 nM and a GI50 (LOX IMVI melanoma) of 841 nM. It also gave a TGI (LOX IMVI melanoma) of over 100000 nM, a GI50 (MDA-MB-231 breast) of 2920 nM and a TGI (MDA-MB-231 breast) of over 100000 nM. It also gave a GI50 (OVCAR-4 ovarian) of 1390 nM, a TGI (OVCAR-4 ovarian) of over 100000 nM and a GI50 (786-0 renal) of 1190 nM. For the same molecule, the TGI (786-0 renal) was over 100000 nM.
